Consider 25 compounds from patent US11065253B2, “Arylquinazolines” (Merck Patent GmbH, priority 2013, dated 2021).

Structures are written as SMILES.

In the first assay the test system is phospho-serine 2056 DNA-PK in HCT116 cells. The assay is described as follows: DNA-PK phosphorylation at serine 2056 (cellular), ELISA in bleomycin-treated HCT116 cells. To be noted: Homo sapiens, HCT-116, 6 h, cellular; HCT116 cells, 10 μM bleomycin, six hours; read-out: IC50 pDNA-PK. The class given is cell-based. The procedure, abridged:
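HCT116, MEM alpha + 10% FCS, 37 °C/10% CO2, seeded o/n. Cpd + 10 μM bleomycin, 6 h. ELISA, chemiluminescence; phospho/total DNA-PKcs ratio, DMSO = blank.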
For `CN(C)C(=O)c1ccc(C(O)c2cc(-c3ncnc4cc(N5CCOCC5)ccc34)c(F)cc2Cl)nn1` (stereo not shown) [Example 50, 6-{[2-Chloro-4-fluoro-5-(7-morpholin-4-yl-quinazolin-4-yl)phenyl]-hydroxymethyl}-pyridazine-3-carboxylic acid dimethylamide], the IC50 lay within 10 to 30 µM.
Consider `O[C@@H](c1ccc(F)c(-c2ncnc3cc(N4CCOCC4)ccc23)c1)c1nccnc1Cl` [Example 28, (S)-(3-Chloro-pyrazin-2-yl)-[4-fluoro-3-(7-morpholin-4-yl-quinazolin-4-yl)phenyl]-methanol], for which the IC50 was in the range of 5 to 10 µM.
Consider `OC(c1ccn2nccc2n1)c1cc(-c2ncnc3cc(N4CCOCC4)ccc23)c(F)cc1Cl` (stereo not shown) [Example 39, [2-Chloro-4-fluoro-5-(7-morpholin-4-yl-quinazolin-4-yl)phenyl]-pyrazolo[1,5-a]-pyrimidin-5-ylmethanol], for which the IC50 was under 0.5 µM.
In the case of `O=c1ccc(C(O)c2cc(-c3ncnc4cc(N5CCOCC5)ccc34)c(F)cc2Cl)nn1C1CC1` (stereo not shown) [Example 95, 6-{[2-Chloro-4-fluoro-5-(7-morpholin-4-yl-quinazolin-4-yl)phenyl]-hydroxymethyl}-2-cyclopropyl-2H-pyridazin-3-one], the IC50 is 0.5 to 5 µM.
As to `COc1ccc([C@@H](O)c2ccc(F)c(-c3ncnc4cc(N5CCOCC5)ccc34)c2)nn1` [Example 72, (S)-[4-Fluoro-3-(7-morpholin-4-yl-quinazolin-4-yl)phenyl]-(6-methoxypyridazin-3-yl)methanol], the IC50 is 0.5 to 5 µM.
Regarding `CN(C)c1ccc(C(O)c2ccc(F)c(-c3ncnc4cc(N5CCOCC5)ccc34)c2)nn1` (stereo not shown) [Example 68, (6-Dimethylamino-pyridazin-3-yl)-[4-fluoro-3-(7-morpholin-4-yl-quinazolin-4-yl)phenyl]-methanol], the IC50 is 5 to 10 µM.

Still in this assay, the particulars now being: Homo sapiens, HCT-116, cellular DNA-PK phosphorylation at serine 2056, HCT116 cells; read-out: IC50 pDNA-PK.
As to `COc1nccnc1C(O)c1cc(-c2ncnc3cc(N4CCOCC4)ccc23)ccc1Cl` (stereo not shown) [Example 410, [2-Chloro-5-(7-morpholin-4-yl-quinazolin-4-yl)-phenyl]-(3-methoxy-pyrazin-2-yl)-methanol (Ena 2)], the IC50 was under 0.5 µM.
On the same count and under the same terms, the result for `CCOc1cccnc1C(O)c1ccc(F)c(-c2ncnc3cc(N4CCOCC4)ccc23)c1` (stereo not shown) [Example 463, (3-Ethoxy-pyridin-2-yl)-[4-fluoro-3-(7-morpholin-4-yl-quinazolin-4-yl)-phenyl]methanol] reads under 0.5 µM; that for `O=C1CCCN1c1nccnc1C(O)c1ccc(F)c(-c2ncnc3cc(N4CCOCC4)ccc23)c1` (stereo not shown) [Example 425, 1-(3-{[4-Fluoro-3-(7-morpholin-4-yl-quinazolin-4-yl)-phenyl]hydroxy-methyl}pyrazin-2-yl)-pyrrolidin-2-one], 10 to 30 µM.
On the same count and under the same terms, the result for `Cn1cnc2c(C(O)c3cc(-c4ncnc5cc(N6CCOCC6)ccc45)ccc3F)ncnc21` (stereo not shown) [Example 370, [2-Fluoro-5-(7-morpholin-4-yl-quinazolin-4-yl)-phenyl]-(9-methyl-9H-purin-6-yl)-methanol] reads 0.5 to 5 µM; that for `CN1CCN(c2nccnc2C(O)c2ccc(F)c(-c3ncnc4cc(N5CCOCC5)ccc34)c2)C1=O` (stereo not shown) [Example 424, 1-(3-{[4-Fluoro-3-(7-morpholin-4-yl-quinazolin-4-yl)-phenyl]hydroxy-methyl}pyrazin-2-yl)-3-methyl-imidazolidin-2-one], 10 to 30 µM.
The same measure, in the same setting: in the case of `Cn1cnc2c(C(O)c3cc(-c4ncnc5cc(N6CCOCC6)ccc45)ccc3Cl)ncnc21` (stereo not shown) [Example 371, [2-Chloro-5-(7-morpholin-4-yl-quinazolin-4-yl)-phenyl]-(9-methyl-9H-purin-6-yl)-methanol] it was 0.5 to 5 µM.
In the case of `Cc1cncnc1C(O)c1cc(-c2ncnc3cc(N4CCOCC4)ccc23)ccc1Cl` (stereo not shown) [Example 417, [2-Chloro-5-(7-morpholin-4-yl-quinazolin-4-yl)-phenyl]-(5-methyl-pyrimidin-4-yl)-methanol (Ena 2)], the IC50 fell in the range of 0.5 to 5 µM.
Still for that read-out and setting: the result for `OC(c1cn2ccsc2n1)c1cc(-c2ncnc3cc(N4CCOCC4)ccc23)c(F)cc1F` (stereo not shown) [Example 474, [2,4-Difluoro-5-(7-morpholin-4-yl-quinazolin-4-yl)-phenyl]imidazo-[2,1-b]thiazol-6-yl-methanol] reads 10 to 30 µM.

Staying with this assay, now noted: Homo sapiens, HCT-116, phospho-serine 2056 DNA-PK, bleomycin-treated HCT116 cells; class symbols A-D; read-out: IC50 pDNA-PK.
With `OC(c1cccc(-c2ncnc3cc(N4CCOCC4)ccc23)c1)(c1nccs1)C(F)(F)F` (stereo not shown) [Example 172, 2,2,2-Trifluoro-1-[3-(7-morpholin-4-yl-quinazolin-4-yl)-phenyl]-1-thiazol-2-ylethanol], the IC50 was 10 to 30 µM.

The same assay, now with this note: Homo sapiens, HCT-116, phospho-serine 2056 DNA-PK, bleomycin-treated HCT116 cells; read-out: IC50 pDNA-PK.
On to `OC(c1ccc(F)c(-c2ncnc3cc(N4CCOCC4)ccc23)c1)c1nccn2cnnc12` (stereo not shown) [Example 351, [4-Fluoro-3-(7-morpholin-4-yl-quinazolin-4-yl)-phenyl]-[1,2,4]-triazolo[4,3-a]-pyrazin-8-ylmethanol], for which the IC50 fell in the range of 10 to 30 µM.
The same measure, in the same setting: the result for `Cc1cncc(C(O)c2ccc(F)c(-c3ncnc4cc(N5CCOCC5)ccc34)c2)n1` (stereo not shown) [Example 296, [4-Fluoro-3-(7-morpholin-4-yl-quinazolin-4-yl)-phenyl]-(6-methyl-pyrazin-2-yl)-methanol] reads 5 to 10 µM; that for `Cc1cnc(C(O)c2ccc(F)c(-c3ncnc4cc(N5CCOCC5)ccc34)c2)c(C)n1` (stereo not shown) [Example 354, (3,5-Dimethyl-pyrazin-2-yl)-[4-fluoro-3-(7-morpholin-4-yl-quinazolin-4-yl)-phenyl]methanol], under 0.5 µM; that for `Cc1cc(C(O)c2cc(-c3ncnc4cc(N5CCOCC5)ccc34)c(F)cc2Cl)n(C)c(=O)c1` (stereo not shown) [Example 339, 6-{[2-Chloro-4-fluoro-5-(7-morpholin-4-yl-quinazolin-4-yl)-phenyl]hydroxy-methyl}-1,4-dimethyl-1H-pyridin-2-one], 0.5 to 5 µM.
On the same count and under the same terms, the result for `OC(c1ccc(F)c(-c2ncnc3cc(N4CCOCC4)ccc23)c1)c1nccn2cccc12` (stereo not shown) [Example 356, [4-Fluoro-3-(7-morpholin-4-yl-quinazolin-4-yl)-phenyl]pyrrolo[1,2-a]-pyrazin-1-ylmethanol] reads under 0.5 µM; that for `NC(=O)C(c1cccnc1)c1cc(-c2ncnc3cc(N4CCOCC4)ccc23)c(F)cc1Cl` (stereo not shown) [Example 293, 2-[2-Chloro-4-fluoro-5-(7-morpholin-4-yl-quinazolin-4-yl)-phenyl]-2-pyridin-3-ylacetamide], 5 to 10 µM.

Still in this assay, the particulars now being: cellular DNA-PK phosphorylation at serine 2056, HCT116 cells; read-out: IC50 pDNA-PK.
With `COc1nccnc1C(O)c1cc(-c2ncnc3cc(N4CCOCC4)ccc23)ccc1Cl` (stereo not shown) [Example 422, [2-Chloro-5-(7-morpholin-4-yl-quinazolin-4-yl)-phenyl]-(3-methoxy-pyrazin-2-yl)-methanol], the IC50 fell in the range of 0.5 to 5 µM.

The same assay, now with this note: cellular; HCT116 cells, 10 μM bleomycin, six hours; read-out: IC50 pDNA-PK.
On to `OC(c1ccc(F)c(-c2ncnc3cc(N4CCOCC4)sc23)c1)c1nccnc1Cl` (single isomer, unassigned) [Example 24, (3-Chloro-pyrazin-2-yl)-[4-fluoro-3-(6-morpholin-4-yl-thieno-[3,2-d}pyrimidin-4-yl)-phenyl]methanol], for which the IC50 was under 0.5 µM.
For the compound `OC(c1ccc2nccn2n1)c1cc(-c2ncnc3cc(N4CCOCC4)ccc23)c(F)cc1Cl` (stereo not shown) [Example 57, [2-Chloro-4-fluoro-5-(7-morpholin-4-yl-quinazolin-4-yl)phenyl]-imidazo[1,2-b]pyridazin-6-ylmethanol], the IC50 is under 0.5 µM.

The same assay, now with this note: phospho-serine 2056 DNA-PK, bleomycin-treated HCT116 cells; class symbols A-D; read-out: IC50 pDNA-PK.
Take `OC(c1ccc(F)c(-c2ncnc3cc(N4CCOCC4)sc23)c1)c1nccs1` (stereo not shown) [Example 146, [4-Fluoro-3-(6-morpholin-4-yl-thieno[3,2-d}-pyrimidin-4-yl)-phenyl]thiazol-2-yl-methanol]: the IC50 fell in the range of 0.5 to 5 µM.

Usually IC50 stands for the midpoint of a concentration-inhibition curve.
